Test results published in US11560582B2, “Fusion moieties and microbial hosts for protein production” (priority 2018, dated 2023).

What was measured:
A. wodanis strains = conditions: have been reported; cited from earlier work
molecular beacon probe = assay: DNA polymerase molecular beacon activity assay; assay type: biochemical; conditions: affinity purified enzyme expressed in A. wodanis 03/09/160; increasing enzyme
Description: Activity assay for AsPoIII is based on a molecular beacon probe (5″-GGCCCGT^Dabcyl[…]^FAMACGGGCCGTCAAGTT CATG […]-3′ (SEQ ID NO:46)) (modified from Summerer, 2008). The molecular beacon probe consists of a 23mer loop that is connected by a GC-rich 8mer stem region (the 8-mer stem region consists of two 8 nucleotide sequences-sequences are indicated in italics) and a 43mer extension. The fluorophores Dabcyl and FAM are attached to the indicated “T” nucleotides. Due to the loop formation the fluorophores Dabcyl and FAM are in close proximity and thus quenched. Upon extension by the DNA polymerase I of the primer (5″-GTGGTGCGAAATTTCTGAC-3′ (SEQ ID NO:47)) that is annealed to the molecular beacon template the stem is opened and the increase in distance of the two fluorophores is measured by the restoration of FAM fluorescence (excitation 485 nm, emission 518 nm). Assay was monitored in 50 μL reactions containing 0.2 μM substrate (molecular beacon) mixed with 0.2 mM dNTP in 1× reaction buffer (250 mM Tris-HCl, pH 8.5, 250 mM, KCl, 25 mM MgCl2) and 1×DB (1 mg/ml BSA, 5 mM DTT, 10% glycerol). The mixture was first incubated at 25° C. for 5 min, and the reaction was started by adding the purified enzyme. Increase in fluorescence was measured (excitation 485 nm, emission 518 nm) for 15 min with 10 sec intervals (total of 91 reads). […]

[1] = system: ssDNA "molecular beacon" substrate; assay: Exonuclease I molecular beacon activity assay; assay type: biochemical; conditions: affinity purified enzyme expressed in A. wodanis 03/09/160; increasing enzyme
Method: The two enzyme activity assays used in this work are both based on so-called “molecular beacons”. Each “molecular beacon” consists of a hairpin shaped DNA oligonucleotide with an internally quenched fluorophore (in this case FAM). TAMRA was used as the FAM quencher. Enzyme activity of affinity purified AsExoI and MvExoI were tested in 50 μL reactions containing the following: 0.2 μM ssDNA “molecular beacon” substrate (5′-FAM-CGCCATCGGAGGTTC-TAMRA-3′ (SEQ ID NO:45)), 50 mM Tris pH 8.5, 30 mM MgCl2, 1 mM DTT, 0.2 mg/ml BSA, 2% glycerol and 8.5 nM enzyme (Exonuclease I). The reaction was carried out in a black 96-well fluorescence assay plate (Corning®), and increase in FAM fluorescence (excitation at 485 nm, emission at 518 nm) was measured as relative fluorescence units (RFU) at appropriate time intervals for 40 min.

## CC1(C)S[C@@H]2[C@H](NC(=O)[C@H](N)c3ccccc3)C(=O)N2[C@H]1C(=O)O [ampicillin]
A. wodanis strains
  Resistance of A. wodanis strains (reported): Resistance

## CO[C@@]1(NC(=O)Cc2cccs2)C(=O)N2C(C(=O)O)=C(COC(N)=O)CS[C@@H]21 [cefoxitin]
A. wodanis strains
  Resistance of A. wodanis strains (reported): Resistance

## Cc1cc(NS(=O)(=O)c2ccc(N)cc2)no1 [sulfamethoxazole]
A. wodanis strains
  Resistance of A. wodanis strains (reported): Resistance

B1: AsPoIII: DNA polymerase II from Aliivibrio salmonicida (SEQ ID NO: 38), His-tagged, expressed in A. wodanis (protein, listed as Aliivibrio salmonicida)
chain: LNSPHCGFLLTRQNKDIRDHSLVDLWVKCDDHIAHLLIENELAVIFFLKERQAEYESILTNAHIHYSIKSTSLHTFQHQPVFGLYFSSTQQKRVATALFEDHQLPTFEGDIRLADRYLMERFICGGMAFVGTPRQRKGYVEYRDVKIKSAEMTPEFSVVSLDVECSEKGILYSVALHCERDTRIIMVGPEETSDLPIEWVENEKALLLALESWFQTFDPDIIIGWNVINFDFNLLIKRAKWHNLAFRLGRGNSSLYFRESNKNRQQGFLSFPGRVVLDGIDALKTATYHFSSWSLESVSQELLNEGKSIHDPSDRMGEINRMYREDKCALAKYNLQDCVLVTRIFELTHLLEFVIERTKLTGIELDRVGGSVAAFTNLYLPRLHRAGYIAPNLESENWIASPGGYVMSSKPGLYESVLVLDFKSLYPSIIKTFRIDPLGLVEGLKLESGIDDGQAIEGFRGGRFHRTKHFLPNLIETLWSARDVAKKNNEKAFSQAIKIIMNSFYGVLGSSGCRFFDHRLASSITMRGHEIMKTTRELIESQGYEVIYGDTDSTFVTLGESMPSDEADKIGKQLVDHINQWWTAHLESEYAIDSALEIEYETHYRIFLMPTIRGSEMGSKKRYAGLIRKGDKEEIIFKGLETVRTDWTPLSQEFQKVLFDKVFHQQAVEEYVREYVDKTKSGEFDNKLIYRKRLRRQLDEYQKNVPPHVKAARIADTQNQKLGKPLMYQQGGWIEYIITTAGPEPIEYRQNPIDYDHYVEKQLKPIAEGILPFVNLSFTELSASQLGLF
modifications: 6xHis tag
Molecular beacon probe
  DNA polymerase activity (FAM fluorescence, RFU): dose-dependent

B2: AsExoI: Exonuclease I from Aliivibrio salmonicida (SEQ ID NO: 37), His-tagged, expressed in A. wodanis (protein, listed as Aliivibrio salmonicida)
chain: MPQDNAPSFFFFDYETWGTSPSLDRPCQFAGVRTDEDFNIIGEPLVIYCRPPIDYLPSPEACLITGITPQMAVSKGLSEPEFIAQIHNELSKPNTCSLGYNNIRFDDEVSRYTLYRNFFEPYGWSWQNGNSRWDLLDVMRAVYALRPEGIEWPKDEEGKPSFRLEKLSQANGIEHENAHDAMADVIATIELAKVVKKAQPKMFNYLLSMRHKKKAATLIDIIEMTPLMHVSGMFGVDRGNISWIVPVAWHPTNNNAVITIDLALDPAVFLELDAEQLHQRMYTKRSELGPDELPVPVKLVHLNKCPILAPAKTLTAENAIALNVDREACLRNLKVIRENPEIRQKLIDLYNIEPGYEKSSNVDTLLYDGFFSHADKTAIDMIRQSTPEQLIDFEPNVSDPRIKPLLFRYRARNFPHTLNESEQLRWQAHLQDYFETHMSDYETRFESLYLESEGNEKKTAILRAVYNYVQQLVS
modifications: 6xHis tag
[1]
  exonuclease activity (FAM fluorescence, RFU): dose-dependent
